Values quoted from earlier work as cited in US9180090B2, “Non-sedating antihistamine injection formulations and methods of use thereof” (JDP THERAPEUTICS, INC., priority 2009, dated 2015).

Experiments:
[1] = for Major (potential drug interactions) / Minor (potential drug interactions) / Moderate (potential drug interactions): number of interactions per drugs.com
[2] = oral

| Major (potential drug interactions) [1] | Minor (potential drug interactions) [1] | Moderate (potential drug interactions) [1] | Disease state interaction ([1]; per drugs.com) | Compound | AUC0-24 (single dose) ([2]; single dose) | AUC(single dose)0-inf ([2]; single dose) | AUCss ([2]; steady state) |
| --- | --- | --- | --- | --- | --- | --- | --- |
| 17 | 6 | 622 |  | OCCOCCN1CCN(C(c2ccccc2)c2ccc(Cl)cc2)CC1 (racemic) [Hydroxyzine] |  |  |  |
| 0 | 5 | 568 | Renal/Liver Disease | O=C(O)COCCN1CCN(C(c2ccccc2)c2ccc(Cl)cc2)CC1 (racemic) [Cetirizine, (±)-[2-[4-[(4-chlorophenyl)phenylmethyl]-1-piperazinyl]ethoxy]acetic acid] |  |  |  |
|  |  |  |  | Clc1ccc2c(c1)CCc1cccnc1C2=C1CCNCC1 [desloratadine] | AUC0-24 (single dose) = about 34.2 ng · hr/mL | AUC(single dose)0-inf = about 35.6 ng/hr/mL | AUCss = about 56.9 ng · hr/mL |
